Experimental data: ChEMBL document CHEMBL3046319, “PCR-RFLP detection of the E198A mutation conferring resistance to benzimidazoles in field isolates of Monilinia laxa from Greece” (Crop Prot, 2012)
≈ marks a conversion by molar mass, not a printed value. Calls of active or inactive are those of the source. The calls are words filed in the database; no cut-off is given here.

Experiments:
[1] = test system: Monilinia laxa; assay: Fungicidal activity against Monilinia laxa isolate MLNS2 assessed as reduction in mycelial growth rate at 1 to 10 ug/ml at 31 degC after 5 days; assay type: functional, organism-based
[2] = test system: Monilinia laxa; assay: Fungicidal activity against Monilinia laxa isolate MLC6 assessed as reduction in mycelial growth rate at 25 degC after 4 days; assay type: functional, organism-based; settings: isolate MLC6, 96 h
[3] = test system: Monilinia laxa; assay: Fungicidal activity against Monilinia laxa isolate MLBO2 assessed as virulence in prune fruits assessed as virulence treated 10 min prior to mycelial inoculation at 24 degC after 10 days relative to isolate MLX1by pathogenicity bioassay; assay type: functional
[4] = test system: Monilinia laxa; assay: Fungicidal activity against Monilinia laxa isolate MLC3 assessed as reduction in mycelial growth rate at 1 to 10 ug/ml at 25 to 28 degC; assay type: functional, organism-based
[5] = test system: Monilinia laxa; assay: Fungicidal activity against Monilinia laxa isolate MLK6 assessed as reduction in mycelial growth rate at 1 to 10 ug/ml at 28 degC after 8 days; assay type: functional, organism-based
[6] = test system: Monilinia laxa; assay: Fungicidal activity against Monilinia laxa isolate MLA1 assessed as virulence in prune fruits assessed as virulence treated 10 min prior to mycelial inoculation at 24 degC after 10 days relative to isolate MLX1by pathogenicity bioassay; assay type: functional
[7] = test system: Monilinia laxa; assay: Fungicidal activity against Monilinia laxa isolate MLNS1 assessed as reduction in mycelial growth rate at 1 to 10 ug/ml at 25 to 28 degC; assay type: functional, organism-based
[8] = test system: Monilinia laxa; assay: Fungicidal activity against Monilinia laxa isolate MLK9 assessed as reduction in mycelial growth rate at 1 to 10 ug/ml at 31 degC after 5 days; assay type: functional, organism-based
[9] = test system: Monilinia laxa; assay: Fungicidal activity against Monilinia laxa isolate MLK2 assessed as reduction in mycelial growth rate at 25 degC after 4 days; assay type: functional, organism-based; settings: isolate MLK2, 96 h
[10] = test system: Monilinia laxa; assay: Fungicidal activity against Monilinia laxa isolate MLA1 assessed as mean mycelial colony diameter at 25 degC after 4 days; assay type: functional
[11] = test system: Monilinia laxa; assay: Fungicidal activity against Monilinia laxa isolate KX5 assessed as reduction in mycelial growth rate at 1 to 10 ug/ml at 25 to 28 degC; assay type: functional, organism-based
[12] = test system: Monilinia laxa; assay: Fungicidal activity against Monilinia laxa isolate MLX5 assessed as reduction in mycelial growth rate at 1 to 10 ug/ml at 31 degC after 5 days; assay type: functional, organism-based
[13] = test system: Monilinia laxa; assay: Fungicidal activity against Monilinia laxa isolate MLB1 assessed as reduction in mycelial growth rate at 1 to 10 ug/ml at 25 to 28 degC; assay type: functional, organism-based
[14] = test system: Monilinia laxa; assay: Fungicidal activity against Monilinia laxa isolate MLG1 assessed as mycelial growth at 1 ug/ml at 25 degC after 4 days; assay type: functional
[15] = test system: Monilinia laxa; assay: Fungicidal activity against Monilinia laxa isolate MLK4 assessed as reduction in mycelial growth rate at 25 degC after 4 days; assay type: functional, organism-based; settings: isolate MLK4, 96 h
[16] = test system: Monilinia laxa; assay: Fungicidal activity against Monilinia laxa isolate MLX1 assessed as reduction in mycelial growth rate at 1 to 10 ug/ml at 25 to 28 degC; assay type: functional, organism-based
[17] = test system: Monilinia laxa; assay: Fungicidal activity against Monilinia laxa isolate MLK1 assessed as mycelial growth at 1 ug/ml at 25 degC after 4 days; assay type: functional
[18] = test system: Monilinia laxa; assay: Fungicidal activity against Monilinia laxa isolate MLK6 assessed as reduction in mycelial growth rate at 1 to 10 ug/ml at 31 degC after 5 days; assay type: functional, organism-based
[19] = test system: Monilinia laxa; assay: Fungicidal activity against Monilinia laxa isolate MLX4 assessed as reduction in mycelial growth rate at 1 to 10 ug/ml at 31 degC after 5 days; assay type: functional, organism-based
[20] = test system: Monilinia laxa; assay: Fungicidal activity against Monilinia laxa isolate MLK1 assessed as reduction in mycelial growth rate at 1 to 10 ug/ml at 25 to 28 degC; assay type: functional, organism-based
[21] = test system: Monilinia laxa; assay: Fungicidal activity against Monilinia laxa isolate B1 assessed as reduction in mycelial growth rate at 1 to 10 ug/ml at 31 degC after 5 days; assay type: functional, organism-based
[22] = test system: Monilinia laxa; assay: Fungicidal activity against Monilinia laxa isolate MLK1 assessed as virulence in prune fruits assessed as virulence treated 10 min prior to mycelial inoculation at 24 degC after 10 days relative to isolate MLX1by pathogenicity bioassay; assay type: functional

What does the source list for `COC(=O)Nc1nc2ccccc2[nH]1` [CARBENDAZIM]?
inhibition [1]: Active; EC50 [2]: 0.12 µg/mL (≈ 0.628 µM); Activity [3]: 95%; inhibition [4]: inactive; inhibition [5]: inactive; Activity [6]: 90.33%; inhibition [7]: inactive; inhibition [8]: Active; EC50 [9]: > 50 µg/mL; Activity [10]: 27.1 mm; inhibition [11]: inactive; inhibition [12]: Active; inhibition [13]: inactive; Activity [14]: 0%; EC50 [15]: > 50 µg/mL; inhibition [16]: inactive; Activity [17]: 99.9%; inhibition [18]: Active; inhibition [19]: Active; inhibition [20]: inactive; inhibition [21]: Active; Activity [22]: 97.77%
